Assay results reported in patent publication US20220046919A1, “SYNERGISTIC INSECTICIDAL COMBINATIONS” (UPL LTD, priority 2019, published 2022).
Entries after “also recorded” stand apart in the source; their conditions may differ.

Assays:
[1] = in vivo; cited from earlier work
[2] = cited from earlier work
[3] = system: Amrasca bigutula bigutula; assay: Field trial: control of Jassids in infected Okra; format: in vivo; conditions: Denatonium Benzoate alone
Experimental: (§1) Field trials were conducted to study the effect of the combination of Denatonium benzoate with insecticides. The following three combinations were tested on the control of Jassids species Amrasca bigutula bigutula in the crop of infected Okra (Abelmoschus esculentum L) over the use of insecticides alone. • Denatonium benzoate+Flonicamid • Denatonium benzoate+Thiamethoxam • Denatonium benzoate+Imidacloprid
(§2) Both phytotoxicity and percentage control of the Jassids was measured.
T-1, T-2 and T-3 are the treatment with insecticidal combinations according to the present invention; T-4, T-5 and T-6 are the treatment with insecticides alone; T-7 and T-8 are the treatment with Denatonium benzoate (DB) liquid solutions alone and T-9 is the control.
Bio-efficacy of insecticidal combinations of the present invention against Jassids in infected Okra were evaluated. The percentage control of Jassids was measured. Efficacy was evaluated as: Excellent 91-100%, Very good 81-90%, Good 71-80%, Moderate 51-70%, Poor<50%.

[4] = system: Okra (Abelmoschus esculentum L); assay: Phytotoxicity / crop safety on Okra in the field trial; format: in vivo; conditions: both application rates, 4 ml & 5 ml/lit of water
Experimental: as §1, §2
The safety of Denatonium Benzoate (DB) combinations according to present invention on Okra was evaluated. It is observed that the DB combinations according to the present invention are safe and no Phytotoxicity is observed.

For `CC[N+](CC)(CC(=O)Nc1c(C)cccc1C)Cc1ccccc1.O=C([O-])c1ccccc1` [Denatonium benzoate, phenylmethyl-[2-[(2,6-dimethylphenyl)amino]-2-oxoethyl]-diethylammonium benzoate], the “human safety in clinical trials” value [1] is listed as “extremely human safe”, the “concentration with generally recognized bitter taste” value ([2]; in vivo) is listed as 50 ppb and the “concentration detected by the average person” value ([2]; taste detection) is listed as 10 ppb. For the same compound, the “control of Jassids / insecticidal activity, in words” value [3] was “no significant control of Jassids; also recorded: does not exhibit any insecticidal activity” and the “Selectivity: crop safety on okra” value [4] was “Good crop safety”.
